Source: patent publication US12527325B2, “Pesticidally active diazine-amide compounds” (SYNGENTA CROP PROTECTION AG, priority 2019, dated 2026)

Key:
Type in all cases: in vivo
Plutella xylostella [1] = experiment: Example B5: Plutella xylostella (Diamond Back Moth); conditions: 192 h, application rate of 200 ppm, 24-well artificial diet, eggs, 8 days after infestation, read-out: control in at least one of the two categories (mortality or growth inhibition)
Protocol: Example B5: Plutella xylostella (Diamond Back Moth)
24-well microtiter plates with artificial diet were treated with aqueous test solutions prepared from 10′000 ppm DMSO stock solutions by pipetting. After drying, Plutella eggs were pipetted through a plastic stencil onto a gel blotting paper and the plate was closed with it. The samples were assessed for mortality and growth inhibition in comparison to untreated samples 8 days after infestation.

Chilo suppressalis = experiment: Example B4: Chilo suppressalis (Striped Rice Stemborer); conditions: 144 h, application rate of 200 ppm, artificial diet, L2 larvae, 6 days after infestation, read-out: control in at least one of the three categories (mortality, anti-feedant or growth inhibition)
Protocol: Example B4: Chilo suppressalis (Striped Rice Stemborer)
24-well microtiter plates with artificial diet were treated with aqueous test solutions prepared from 10′000 ppm DMSO stock solutions by pipetting. After drying, the plates were infested with L2 larvae (6-8 per well). The samples were assessed for mortality, anti-feeding effect, and growth inhibition in comparison to untreated samples 6 days after infestation. Control of Chilo suppressalis by a test sample is given when at least one of the categories mortality, anti-feedant effect, and growth inhibition is higher than the untreated sample.

Euschistus heros = experiment: Example B2: Euschistus heros (Neotropical Brown Stink Bug); conditions: 120 h, application rate of 200 ppm, sprayed soybean leaves, N2 nymphs, 5 days after infestation, read-out: control in at least one of the two categories (mortality or growth inhibition)
Protocol: Example B2: Euschistus heros (Neotropical Brown Stink Bug)
Soybean leaves on agar in 24-well microtiter plates were sprayed with aqueous test solutions prepared from 10′000 ppm DMSO stock solutions. After drying the leaves were infested with N2 nymphs. The samples were assessed for mortality and growth inhibition in comparison to untreated samples 5 days after infestation.

Spodoptera littoralis = experiment: Example B9: Spodoptera littoralis (Egyptian Cotton Leaf Worm), cotton leaf disc spray; conditions: foliar, 72 h, application rate of 200 ppm, sprayed cotton leaf discs, L1 larvae, 3 days after infestation, read-out: control in at least one of the three categories (mortality, anti-feedant or growth inhibition)
Diabrotica balteata = experiment: Example B1: Diabrotica balteata (Corn Root Worm); conditions: 96 h, application rate of 200 ppm, sprayed maize sprouts, L2 larvae, 4 days after infestation, read-out: control in at least one of the two categories (mortality or growth inhibition)
Protocol: Example B1: Diabrotica balteata (Corn Root Worm)
Maize sprouts placed onto an agar layer in 24-well microtiter plates were treated with aqueous test solutions prepared from 10′000 ppm DMSO stock solutions by spraying. After drying, the plates were infested with L2 larvae (6 to 10 per well). The samples were assessed for mortality and growth inhibition in comparison to untreated samples 4 days after infestation.

Myzus persicae [2] = experiment: Example B8: Myzus persicae (Green Peach Aphid): Intrinsic Activity; conditions: 120 h, test rate of 12 ppm, 24-well sucrose solution under Parafilm, 5 days after infestation
Text: Example B8: Myzus persicae (Green Peach Aphid): Intrinsic Activity
Test compounds prepared from 10′000 ppm DMSO stock solutions were applied by pipette into 24-well microtiter plates and mixed with sucrose solution. The plates were closed with a stretched Parafilm. A plastic stencil with 24 holes was placed onto the plate and infested pea seedlings were placed directly on the Parafilm. The infested plate was closed with a gel blotting paper and another plastic stencil and then turned upside down. The samples were assessed for mortality 5 days after infestation.

Myzus persicae [3] = experiment: Example B7: Myzus persicae (Green Peach Aphid): Systemic Activity; conditions: 144 h, test rate of 24 ppm, roots of pea seedlings in test solution, 6 days
Protocol: Example B7: Myzus persicae (Green Peach Aphid): Systemic Activity
Roots of pea seedlings infested with an aphid population of mixed ages were placed directly into aqueous test solutions prepared from 10′000 DMSO stock solutions. The samples were assessed for mortality 6 days after placing seedlings into test solutions.

Plutella xylostella [4] = experiment: Example B12: Plutella xylostella (Diamondback Moth), 96-well artificial diet; conditions: 216 h, application rate of 500 ppm, eggs, 9 days after infestation
Protocol: Example B12: Plutella xylostella (Diamondback Moth)
96-well microtiter plates containing artificial diet were treated with aqueous test solutions, prepared from 10′000 ppm DMSO stock solutions, by a liquid handling robot. After drying, eggs (˜30 per well) were infested onto a netted lid which was suspended above the diet. The eggs hatch and L1 larvae move down to the diet. The samples were assessed for mortality 9 days after infestation.

Myzus persicae [5] = experiment: Example B11: Myzus persicae (Green Peach Aphid), 96-well sucrose solution; conditions: 120 h, application rate of 50 ppm, 96-well sucrose solution under Parafilm, 5 days after infestation
Text: Example B11: Myzus persicae (Green Peach Aphid)
Test compounds prepared from 10′000 ppm DMSO stock solutions were applied by a liquid handling robot into 96-well microtiter plates and mixed with a sucrose solution. Parafilm was stretched over the 96-well microtiter plate and a plastic stencil with 96 holes was placed onto the plate. Aphids were sieved into the wells directly onto the Parafilm. The infested plates were closed with a gel blotting card and a second plastic stencil and then turned upside down. The samples were assessed for mortality 5 days after infestation.

CC(NC(=O)c1cc(C(F)(F)F)cc(C2(C#N)CC2)c1)c1nccnc1-c1ncc(C2CC2)cn1 (stereo not drawn) [P3, 3-(1-cyanocyclopropyl)-N-[1-[3-(5-cyclopropylpyrimidin-2-yl)pyrazin-2-yl]ethyl]-5-(trifluoromethyl) benzamide]
≥ 80%: percent control (mortality or growth inhibition) at 200 ppm (Plutella xylostella [1]) | percent control (mortality, anti-feedant effect or growth inhibition) at 200 ppm (Chilo suppressalis) | percent control (mortality or growth inhibition) at 200 ppm (Euschistus heros) | percent control (mortality, anti-feedant effect or growth inhibition) at 200 ppm (Spodoptera littoralis)

CC(NC(=O)c1cc(C(F)(F)F)cc(C(F)(F)C2CC2)c1)c1nccnc1-c1ncccn1 (stereo not drawn) [P30, 3-[cyclopropyl(difluoro)methyl]-N-[1-(3-pyrimidin-2-ylpyrazin-2-yl)ethyl]-5-(trifluoromethyl)benzamide]
≥ 80%: percent control (mortality or growth inhibition) at 200 ppm (Plutella xylostella [1]) | percent control (mortality, anti-feedant effect or growth inhibition) at 200 ppm (Chilo suppressalis) | percent control (mortality or growth inhibition) at 200 ppm (Diabrotica balteata) | percent control (mortality or growth inhibition) at 200 ppm (Euschistus heros) | mortality at 12 ppm (Myzus persicae [2]) | percent control (mortality, anti-feedant effect or growth inhibition) at 200 ppm (Spodoptera littoralis)

CC(NC(=O)c1cc(C(F)(F)F)cc(C(C)(C)C#N)c1)c1nccnc1-c1ncccn1 (stereo not drawn) [P50, 3-(1-cyano-1-methyl-ethyl)-N-[1-(3-pyrimidin-2-ylpyrazin-2-yl)ethyl]-5-(trifluoromethyl)benzamide]
≥ 80%: mortality at 24 ppm (Myzus persicae [3]) | percent control (mortality or growth inhibition) at 200 ppm (Plutella xylostella [1]) | percent control (mortality, anti-feedant effect or growth inhibition) at 200 ppm (Chilo suppressalis) | percent control (mortality or growth inhibition) at 200 ppm (Diabrotica balteata) | percent control (mortality or growth inhibition) at 200 ppm (Euschistus heros) | mortality at 12 ppm (Myzus persicae [2]) | percent control (mortality, anti-feedant effect or growth inhibition) at 200 ppm (Spodoptera littoralis)

CC(NC(=O)c1cc(C(F)(F)F)cc(C2(C#N)CC2)c1)c1nccnc1-c1ccccn1 (stereo not drawn) [P22, 3-(1-cyanocyclopropyl)-N-[1-[3-(2-pyridyl)pyrazin-2-yl]ethyl]-5-(trifluoromethyl) benzamide]
≥ 80%: percent control (mortality or growth inhibition) at 200 ppm (Plutella xylostella [1]) | percent control (mortality, anti-feedant effect or growth inhibition) at 200 ppm (Chilo suppressalis) | percent control (mortality or growth inhibition) at 200 ppm (Diabrotica balteata) | mortality at 500 ppm (Plutella xylostella [4]) | percent control (mortality, anti-feedant effect or growth inhibition) at 200 ppm (Spodoptera littoralis) | mortality at 50 ppm (Myzus persicae [5])

CC(NC(=O)c1cc(C(F)(F)F)cc(C(F)(F)C2CC2)c1)c1nccnc1-c1ccc(Br)cn1 (stereo not drawn) [P21, N-[1-[3-(5-bromo-2-pyridyl)pyrazin-2-yl]ethyl]-3-[cyclopropyl(difluoro)methyl]-5-(trifluoromethyl) benzamide]
≥ 80%: percent control (mortality or growth inhibition) at 200 ppm (Plutella xylostella [1]) | percent control (mortality or growth inhibition) at 200 ppm (Euschistus heros) | mortality at 500 ppm (Plutella xylostella [4])

CC(NC(=O)c1cc(C(F)(F)F)cc(C2(C#N)CC2)c1)c1nccnc1-c1ccc(F)cn1 (stereo not drawn) [P23, 3-(1-cyanocyclopropyl)-N-[1-[3-(5-fluoro-2-pyridyl)pyrazin-2-yl]ethyl]-5-(trifluoromethyl) benzamide]
≥ 80%: percent control (mortality or growth inhibition) at 200 ppm (Plutella xylostella [1]) | mortality at 500 ppm (Plutella xylostella [4]) | mortality at 50 ppm (Myzus persicae [5])

CC(NC(=O)c1cc(C2CC2)cc(C(F)(F)F)c1)c1nccnc1-c1ncccn1 (stereo not drawn) [P41, 3-cyclopropyl-N-[1-(3-pyrimidin-2-ylpyrazin-2-yl)ethyl]-5-(trifluoromethyl)benzamide]
≥ 80%: percent control (mortality or growth inhibition) at 200 ppm (Plutella xylostella [1]) | percent control (mortality, anti-feedant effect or growth inhibition) at 200 ppm (Chilo suppressalis) | percent control (mortality or growth inhibition) at 200 ppm (Diabrotica balteata) | mortality at 12 ppm (Myzus persicae [2]) | percent control (mortality, anti-feedant effect or growth inhibition) at 200 ppm (Spodoptera littoralis)

CC(NC(=O)c1cc(C2CC2C(F)(F)F)cc(C(F)(F)F)c1)c1nccnc1-c1ncccn1 (stereo not drawn) [P37, N-[1-(3-pyrimidin-2-ylpyrazin-2-yl)ethyl]-3-(trifluoromethyl)-5-[2-(trifluoromethyl)cyclopropyl] benzamide]
≥ 80%: percent control (mortality or growth inhibition) at 200 ppm (Plutella xylostella [1]) | percent control (mortality, anti-feedant effect or growth inhibition) at 200 ppm (Chilo suppressalis) | percent control (mortality or growth inhibition) at 200 ppm (Diabrotica balteata) | mortality at 12 ppm (Myzus persicae [2]) | mortality at 500 ppm (Plutella xylostella [4]) | percent control (mortality, anti-feedant effect or growth inhibition) at 200 ppm (Spodoptera littoralis)

CC(NC(=O)c1cc(C(F)(F)F)nc(C2(C#N)CC2)c1)c1nccnc1-c1ncc(Br)cn1 (stereo not drawn) [P55, N-[1-[3-(5-bromopyrimidin-2-yl)pyrazin-2-yl]ethyl]-2-(1-cyanocyclopropyl)-6-(trifluoromethyl)pyridine-4-carboxamide]
≥ 80%: percent control (mortality or growth inhibition) at 200 ppm (Plutella xylostella [1]) | percent control (mortality, anti-feedant effect or growth inhibition) at 200 ppm (Chilo suppressalis) | percent control (mortality or growth inhibition) at 200 ppm (Diabrotica balteata) | percent control (mortality or growth inhibition) at 200 ppm (Euschistus heros) | mortality at 12 ppm (Myzus persicae [2]) | percent control (mortality, anti-feedant effect or growth inhibition) at 200 ppm (Spodoptera littoralis)

CC(NC(=O)c1cc(Cl)nc(C(F)(F)F)c1)c1nccnc1-c1ncccn1 (stereo not drawn) [P1, 2-chloro-N-[1-(3-pyrimidin-2-ylpyrazin-2-yl)ethyl]-6-(trifluoromethyl)pyridine-4-carboxamide]
≥ 80%: percent control (mortality or growth inhibition) at 200 ppm (Plutella xylostella [1]) | percent control (mortality, anti-feedant effect or growth inhibition) at 200 ppm (Chilo suppressalis) | percent control (mortality or growth inhibition) at 200 ppm (Diabrotica balteata) | percent control (mortality or growth inhibition) at 200 ppm (Euschistus heros)

Cc1cnc(-c2nccnc2C(C)NC(=O)c2cc(C(F)(F)F)cc(C(C)(C)C#N)c2)nc1 (stereo not drawn) [P48, 3-(1-cyano-1-methyl-ethyl)-N-[1-[3-(5-methylpyrimidin-2-yl)pyrazin-2-yl]ethyl]-5-(trifluoromethyl)benzamide]
≥ 80%: percent control (mortality or growth inhibition) at 200 ppm (Plutella xylostella [1]) | percent control (mortality, anti-feedant effect or growth inhibition) at 200 ppm (Chilo suppressalis) | percent control (mortality or growth inhibition) at 200 ppm (Euschistus heros) | percent control (mortality, anti-feedant effect or growth inhibition) at 200 ppm (Spodoptera littoralis)

CC(NC(=O)c1cc(C(F)(F)F)cc(C2(C#N)CC2)c1)c1nccnc1-c1ccc(Br)cn1 (stereo not drawn) [P24, N-[1-[3-(5-bromo-2-pyridyl)pyrazin-2-yl]ethyl]-3-(1-cyanocyclopropyl)-5-(trifluoromethyl)benzamide]
≥ 80%: percent control (mortality or growth inhibition) at 200 ppm (Plutella xylostella [1]) | percent control (mortality, anti-feedant effect or growth inhibition) at 200 ppm (Chilo suppressalis) | percent control (mortality or growth inhibition) at 200 ppm (Diabrotica balteata) | mortality at 500 ppm (Plutella xylostella [4]) | percent control (mortality, anti-feedant effect or growth inhibition) at 200 ppm (Spodoptera littoralis)

Cc1cnc(-c2nccnc2C(C)NC(=O)c2cc(C(F)(F)F)nc(C3(C#N)CC3)c2)nc1 (stereo not drawn) [P2, 2-(1-cyanocyclopropyl)-N-[1-[3-(5-methylpyrimidin-2-yl)pyrazin-2-yl]ethyl]-6-(trifluoromethyl)pyridine-4-carboxamide]
≥ 80%: percent control (mortality or growth inhibition) at 200 ppm (Plutella xylostella [1]) | percent control (mortality, anti-feedant effect or growth inhibition) at 200 ppm (Chilo suppressalis) | percent control (mortality or growth inhibition) at 200 ppm (Euschistus heros) | percent control (mortality, anti-feedant effect or growth inhibition) at 200 ppm (Spodoptera littoralis)
